Laboratory results published in patent publication US6706947B2, “Method for screening for agents against cancer using an immunosuppression animal model” (Fremantle Hospital, priority 1996, dated 2004).
≈ marks a conversion by molar mass, not a printed value.

Tests used:
B16M = settings: day 3 in culture, MTT
Procedure: (§1) All tumour cell lines were incubated at 37° C./5%CO2/95% humidity and the medium was changed every 3 to 4 days. For passage and assay, cells were detached with 0.1% w/v trypsin/0.02% w/v versene (CSL).
(§2) The assay was performed according to the method of Mosmann (1983). […] 20 μl of MTT (stock at 5 mg/ml in PBS) was added to each well and the plates incubated at 37° C. for 4 hours. 100 ul of 0.04N HCl-isopropanol was then added to each well and the dark blue formazan-crystals were dissolved by mixing. Optical densities (ODs) were determined at 590 nm using a Titertek multiscan photometer (Flow Labs.) and were directly proportional to cell growth (Mosmann, 1983).
(§3) Tumour cell growth inhibition was assessed using the MTT assay.
(§4) If the values fall in a straight line the effects are additive, and if the points form a concave curve, the effects are synergistic. […] The fractional survival of the individual reagents is determined and the two values are multiplied together. The product of the two values becomes the expected cell survival, and is compared with the observed fractional survival when the two reagents are tested together. […]

[1] = Steady-state plasma concentrations of ketoconazole in sheep (hplc); format: in vivo
Procedure: Following the first dose on the first study day, venous blood samples (5 ml, anticoagulated with EDTA) were collected at 0.17, 0.33, 0.5, 0.75, 1, 2, 3, 4, 6, 8, 12, 15, 22, 27 and 32 h. […] Ketoconazole administration was continued throughout the latter blood sampling period.
Some blood samples taken on days 18-23 were centrifuged to yield plasma which was frozen at −20° C. until analysed for ketoconazole by a specific hplc method. Aliquots of plasma (0.1 ml) were vortexed vigorously with 1 ml acetonitrile (containing 8 mg of fluoxetine hydrochloride as internal standard) for 15 sec. The mixture was centrifuged at 1200 g for 10 min to sediment proteins, 0.5 ml of the supernatant was aspirated, transferred to a clean tube and evaporated to dryness at 50° C. using dry N2. The extract was reconstituted in 0.2 ml of hplc mobile phase and 0.02 ml aliquots were injected onto the hplc column. The hplc system consisted of a Merck RP Select B C18 column (25 cm×4.6 mm id), a mobile phase of 55% acetonitrile in 0.01% v/v H3PO4 and 0.01% W/V NaCl. The solvent was pumped at a flow rate of 1.5 ml/min and eluting compounds were detected by their UV absorbence at 210 nm.

SKMEL = settings: day 3 in culture, MTT
Procedure: as §1, §2, §3, §4

HT-29 = settings: HT-29, day 3 in culture, MTT
Procedure: as §1, §2, §3, §4

[2] = literature (Borel, 1989; Reynolds et al, 1992; Eichenberger et al, 1989a); cited from earlier work

CC(=O)N1CCN(c2ccc(OCC3COC(Cn4ccnc4)(c4ccc(Cl)cc4Cl)O3)cc2)CC1 (centres unmarked) [Ketoconazole]
ED50 (± SD) (B16M): 18.2 ± 3.9 µg/mL (≈ 34.2 µM)
Steady-state concentration of ketoconazole in plasma (mean of trough samples) ([1]; sheep 14, days 18-23, ketoconazole 10 mg/kg po twice daily): 2.6 mg/L
Steady-state concentration of ketoconazole in plasma (mean of trough samples) ([1]; sheep 15, days 18-23, ketoconazole 10 mg/kg po twice daily): 2.19 mg/L
Steady-state concentration of ketoconazole in plasma (mean of trough samples) ([1]; sheep 16, days 18-23, ketoconazole 10 mg/kg po twice daily): 1.63 mg/L
Steady-state concentration of ketoconazole in plasma (mean of trough samples) ([1]; sheep 17, days 18-23, ketoconazole 10 mg/kg po twice daily): 3.04 mg/L
ED50 (± SD) (SKMEL): 28.3 ± 1.7 µg/mL (≈ 53.3 µM)
ED50 (± SD) (HT-29): 12.7 ± 2.0 µg/mL (≈ 23.9 µM)
Maximum therapeutic plasma concentration [2]: 0.10 µg/mL
